From US8541628B2, “Complex cationic lipids having quaternary nitrogens therein” (Vical Incorporated, priority 1995, dated 2013)
“Also recorded” adds a separate entry of the source.

Columns and labels:
murine B16 tumor cells = test: Intraperitoneal tumor assay (CAT DNA, CAT activity in tumors); type: in vivo, C57/B16 mice; conditions: 0.5 mg CAT DNA i.p., 10:1 molar ratio of cytofectin:DNA, tumors two days later, FIG. 5; for CAT expression in tumor cells: control DNA alone
Procedure: Two hundred thousand murine B16 tumor cells in 500 μl RPMI were injected intraperitoneally into C57/B16 mice at day 0. At day 7-14, mice received intraperitoneal injections of 0.5 mg CAT DNA in 1.5 ml saline containing cytofectin at a 10:1 molar ratio of cytofectin:DNA. The cationic lipids used were DMRIE, GAP-DMRIE, GAP-DLRIE, and GMU-DLRIE. Two days later, tumors were collected, extracted and assayed for CAT activity as described in Example 7. The CAT activities observed with the cytofectin formulations is compared to a control receiving DNA alone in FIG. 5. […] CAT activity was greatest in cells transfected with DMRIE.

COS7 monkey kidney cells = test: In vitro transfection of COS7 cells (pRSV lacZ, β-galactosidase expression; DMRIE as reference standard); type: cell-based; conditions: for Activity Cos7: cytofectin activity relative to DMRIE, comparison symbols, key not given
Procedure: (§1) Solutions of a DMRIE or GMU-DMRIE in chloroform were prepared on a weight to volume (w/v) basis. Aliquots of cationic lipid and neutral lipid (when used) were transferred aseptically to sterile vials in amounts calculated to provide the relative and absolute lipid concentrations desired upon reconstitution with 1 ml of aqueous vehicle. Bulk chloroform was removed with a stream of dry nitrogen, and the vials were treated with high vacuum overnight to remove any residual solvent.
(§2) Plasmid DNA at 5 mg/ml of phosphate buffered saline (PBS) as well as the dried, formulated cytofectin-neutral lipid mixture were suspended in OPTIMEM™ (Gibco BRL) and mixed together in 96 well plates at the desired mass/molar ratio as indicated in the Tables. The DNA-lipid complexes were added to the cells within 2 hours after mixing.
(§3) All cells were passaged 1:5 to 1:10 in 10% fetal bovine serum (FBS) and Dulbecco's Modified Eagles medium (DMEM). All cells were expanded through 10 doubling passages upon receipt and aliquots were stored frozen. Upon re-expansion, all cells were used for transfection studies before another 10 passages.
(§4) On day 0, 20,000 cells in 100 microliters 10% FEBS/90% DMEM were seeded into each well of 96-well culture plates (Nunc) and cultured overnight in a 5% CO2 incubator at 37° C. On Day 1, the medium was aspirated carefully without dislodging cells, and 100 microliters of GMU-DMRIE/pRSV lacZ/DOPE in serum-free OPTIMEM™ (Gibco BRL) was added. DMRIE was used as a reference standard. The lacZ gene encodes the enzyme β-galactosidase which can be assayed colorimetricaly. The cationic lipid:DOPE ratios varied for each well. After 4 hours of culture, 50 microliters 30% FBS/70% OPTIMEM™ was added to each well. On Day 2, each well received 100 microliters 10% FEBS/90% OPTIMEM™. On Day 3, the medium was removed and 50 microliters lysis buffer (0.1% Triton-X100 in 250 mM Tris, pH 8.0) was added and the plates were stored at […] for at least 20 hours.

[1] = system: C2C12 mouse myoblast muscle cells; test: In vitro transfection of C2C12 cells (pRSV lacZ, β-galactosidase expression; DMRIE as reference standard); type: cell-based; conditions: for Activity C2C12: cytofectin activity relative to DMRIE, comparison symbols, key not given
Procedure: as §1, §2, §3, §4

[2] = system: influenza nuclear protein (NP) antibody titers; type: in vivo, Balb/c mice; conditions: cytofectin:DOPE 1:1, pDNA-phosphate/cytofectin 4:1, serum at 6 weeks, FIG. 6; for activity in NP antibody assay compared with naked DNA alone: 10 μgr pDNA per animal, day 0 and 3 weeks
BF16F10 melanoma tumors = test: Subcutaneous melanoma tumor model (intratumoral cytofectin/CAT plasmid complex, CAT activity); type: in vivo, BALB/C mice; conditions: intratumoral injection; tumors collected after 48 hours; FIG. 7
Procedure: Tumors are prepared by injecting a suspension of tumor cells subcutaneously on the side of a mouse strain which is compatible with the specific tumor type. The tumors are periodically measured. Once they have reached a size suitable for injection, the tumor volume is approximated based on the measured diameter assuming a spherical tumor. A complex of the cytofectin to be evaluated with a plasmid encoding a reporter gene in a volume of saline equal to the volume of the tumor to be treated is then injected at a flow rate optimized for the particular tumor type. After an appropriate time, the tumors are collected, frozen, then ground up. The reporter gene product is subsequently extracted and the quantity which was expressed is determined using extraction and assay conditions appropriate for the particular gene product being used. A variety of tumor types may be evaluated using this general technique, and different reporter genes are more or less appropriate depending on the tumor type. A specific example of this assay involving melanoma tumors is provided in Example 14 below.
BF16F10 melanoma tumors are propagated in 90% RPMI 1640/10% Fetal Bovine Serum. The tumors are injected subcutaneously into the side of BALB/C mice in 75 μL of a suspension containing approximately 10^6 cells/mL tissue culture medium. When the tumors have reached 4.5 to 7 mm in diameter the volume of each individual tumor is calculated by measuring the diameter of the tumor and assuming a spherical tumor. For each individual tumor, a volume of the cytofectin/CAT plasmid complex in saline equivalent to the calculated volume of the tumor is injected into the tumor at a rate of 2 mL/min. After 48 hours, the tumors are collected, frozen, ground up, and extracted with 1.5 mL of extraction buffer as described in Example 3. CAT activity is quantitated as described below. […]

Row | Compound | Activity Cos7 (COS7 monkey kidney cells) | Activity C2C12 [1] | activity in NP antibody assay compared with naked DNA alone [2] | further results
1 | CCCCCCCCCCCCCCOCC(C[N+](C)(C)CCO)OCCCCCCCCCCCCCC.[Br-] (racemic) [DMRIE, 1-propanaminium, N-(2-hydroxyethyl)-N,N-dimethyl-2,3-bis(tetradecyloxy)-bromide, (±)-, reference compound] | – | – | – | CAT activity, cytofectins compared with one another (murine B16 tumor cells): greatest; CAT expression in tumor cells (murine B16 tumor cells): significant CAT expression
2 | CCCCCCCCCCCCCCOCC(C[N+](C)(C)CCNC(=O)NC)OCCCCCCCCCCCCCC.[Br-] (stereo not drawn) [BMU, β-aminoethyl-DMRIE,Methyl Urea] | ≧ | ≦ | greater activity than naked DNA alone | activity in NP antibody assay, among the compounds tested [2]: particularly high activity
3 | CCCCCCCCCCCCOCC(C[N+](C)(CCCN)CCCN)OCCCCCCCCCCCC (centres unmarked) [BPA-DLRIE] | – | – | greater activity than naked DNA alone | activity in NP antibody assay, among the compounds tested [2]: particularly high activity
4 | CCCCCCCCCCCCCCOCC(C[N+](C)(CCCN)CCCN)OCCCCCCCCCCCCCC (centres unmarked) [BPA-DMRIE] | – | – | greater activity than naked DNA alone | activity in NP antibody assay, among the compounds tested [2]: particularly high activity; CAT activity in subcutaneous melanoma, among the compounds tested (BF16F10 melanoma tumors): particularly high activity
5 | CCCCCCCCCCCCCCOCC(C[N+](C)(C)CCCCNC(=O)NC)OCCCCCCCCCCCCCC.[Br-] (centres unmarked) [DMU, δ-aminobutyl DMRIE, Methyl Urea] | – | ≧ | – | –
6 | CCCCCCCCCCCCOCC(C[N+](C)(C)CCCN)OCCCCCCCCCCCC (centres unmarked) [GAP-DLRIE] | – | – | – | CAT activity, cytofectins compared with one another (murine B16 tumor cells): nearly as effective as DMRIE; also recorded: significant activity; CAT expression in tumor cells (murine B16 tumor cells): significant CAT expression
7 | CCCCCCCCCCCCCCOCC(C[N+](C)(C)CCCN)OCCCCCCCCCCCCCC (centres unmarked) [GAP-DMRIE] | – | – | – | CAT activity, cytofectins compared with one another (murine B16 tumor cells): significant activity; CAT expression in tumor cells (murine B16 tumor cells): significant CAT expression
8 | CCCCCCCCCCCCCCOCC(C[N+](C)(C)CCCNC(=O)NC)OCCCCCCCCCCCCCC (centres unmarked) [GMU, γ-aminopropyl-DMRIE,Methyl Urea] | ≧ | ≈ | – | levels of β-gal activity compared with DMRIE (COS7 monkey kidney cells; COS7 cells): higher levels of activity than those achieved by DMRIE; Total β-gal expression (COS7 monkey kidney cells; COS7 cells, GMU-DMRIE alone (no DOPE)): significantly decreased; total expression of β-gal (COS7 monkey kidney cells; COS7 cells, GMU-DMRIE/DOPE ratio of 75:25): highly effective; levels of total β-gal activity compared with DMRIE ([1]; C2C12 cells): significantly higher levels of total activity than DMRIE; Total β-gal expression ([1]; C2C12 cells, GMU-DMRIE alone (no DOPE)): significantly decreased
9 | CCCCCCCCCCCCOCC(C[N+](C)(C)CCCNC(=O)NC)OCCCCCCCCCCCC (centres unmarked) [GMU-DLRIE] | – | – | – | CAT expression in tumor cells (murine B16 tumor cells): significant CAT expression
10 | CCCCCCCCCCCCCCOCC(C[N+](C)(C)CCCNC(N)=S)OCCCCCCCCCCCCCC (centres unmarked) [GTU-DMRIE, DMRIE-γ-thiourea] | – | – | – | CAT activity in subcutaneous melanoma, among the compounds tested (BF16F10 melanoma tumors): particularly high activity
11 | CCCCCCCCCCCCCCOCC(C[N+](C)(CCCN)CCCCN)OCCCCCCCCCCCCCC (centres unmarked) [PABA-DMRIE] | – | – | greater activity than naked DNA alone | activity in NP antibody assay, among the compounds tested [2]: particularly high activity
12 | DMRIE Methyl carbamate [βMC] | ≈ | ≈ | – | –
13 | DMRIE carboxylate (methionine-methyl ester) amide [DOx-Met-OMe] | – | < | – | –
14 | Hydroxybutyl DMRIE Methyl Carbamate [δMC] | ≈ | ≈ | – | –
15 | Hydroxypropyl DMRIE Methyl Carbamate [ΥMC] | ≈ | ≈ | – | –
16 | Serine-δ-DMRIE amide [δ-ser-DMRIE] | ≈ | ≦ | – | –
17 | pGlutamate-histidine-proline-γ-DMRIE amide [TRH-γ-DMRIE] | ≈ | – | – | –
18 | γ-aminopropyl-DMRIE, Arginine Methyl Ester Urea [Arg(OMe)-GU-DMRIE] | – | – | – | CAT activity in subcutaneous melanoma, among the compounds tested (BF16F10 melanoma tumors): particularly high activity
19 | γ-aminopropyl-DMRIE, α-arabonosyl thiourea [Ara-TU-DMRIE] | ≈ | < | greater activity than naked DNA alone | –
20 | γ-aminopropyl-DMRIE,α-galactosyl thiourea [Gal-TU-DMRIE] | ≧ | ≈ | greater activity than naked DNA alone | –
21 | γ-aminopropyl-DMRIE,α-glucosyl thiourea [Glc-TU-DMRIE] | ≧ | ≦ | greater activity than naked DNA alone | –
